In US20260191793A1, “HBV SPECIFIC EXOSOMES AND USES THEREOF” (priority 2022, published 2026):

Test system: HBV in HepG2-NTCP cells
Test: Infection of HepG2-NTCP cells with supernatants of gRNA/Cas9-transfected HepDE19 cells (infectious HBV particles)
Format: cell-based, Hepatitis B virus (HBV)
Conditions: HepG2-NTCP infected with supernatants of transfected HepDE19 cells, vs supernatants of gRNAc-transfected cells, qPCR
Method: To characterize the effects of synthetic gRNA5/Cas9 and gRNA9/Cas9 on HBV replication, the ability of HBV particles derived from HepDE19 cells that have been transfected with gRNA5, gRNA9, or gRNAc RNPs for 3 days to infect HepG2-NTCP cells was assessed. HepG2-NTCP cells were infected for 6 days with supernatants harvested from HepDE19 cells. Genomic DNA was isolated from HepG2-NTCP cells and used for qPCR quantification of HBV DNA.
HBV infectious particles were harvested from the supernatants of gRNA/Cas9-treated HepDE19 cells and used for the infection of HepG2-NTCP cells following a previously published method. Briefly, the supernatants of gRNA RNP-treated HepDE19 cells were harvested and concentrated using a PEG concentration kit (Cat #ab102538, Abcam, Waltham, MA). For HBV infection, 2.5×10^5 HepG2-NTCP cells were seeded in a 12-well plate and mixed with 10 μl concentrated HBV supernatants in 1 ml hepatocyte maintenance medium (HMM) (with 8% PEG8000 and 5% DMSO) at 37° C. for 16 h. The culture media were changed daily with fresh HMM. After 8 days, the cells were harvested and HBV DNA and cccDNA levels were determined as described below.
Total and protein-free HBV DNAs were extracted from whole cell lysate using the Hirt DNA method according to a previously published protocol. For HBV cccDNA analysis, the protein-free DNA was treated with 10 units of T5 exonuclease (NEB) at 37° C. for 30 min, followed by 95° C. for 5 min, and diluted 4-fold with nuclease-free water. Next, the cccDNA was cleaned with a DNA clean and concentrator kit (ZYMO Research, Irvine, CA) and used for PCR. HBV total DNA and cccDNA were analyzed by real-time PCR using a TaqMan PCR assay. The primers and probe used to amplify HBV total DNA were: HBV total DNA forward: 5′-[…]-3′ (SEQ ID NO: 58), reverse 5′-[…]-3′ (SEQ ID NO: 59), and internal probe: 5′-FAM-[…]-TAMRA-3′ (SEQ ID NO: 60). The primers and probe used to amplify HBV cccDNA (Genotype D, subtype ayw) were: forward: 5′-[…]-3′ (SEQ ID NO: 61), reverse 5′-[…]-3′ (SEQ ID NO: 62), and internal probe 5′-FAM-[…]-TAMRA-3′ (SEQ ID NO: 63). The PCR reactions were performed in 20 μl volumes and contained 2 μl DNA. The PCR conditions were: 95° C. for 10 min, followed by 45 cycles of 95° C. for 15 s and 64° C. for 30 s. The DNA levels were determined by the […] method and values were normalized to the control group.
Sodium taurocholate cotransporting polypeptide (NTCP) is a functional receptor for human HBV. The human hepatoma cell line HepG2 is not susceptible to HBV infection due to lack of NTCP; however, HepG2 cells transfected with NTCP expression plasmids (HepG2-NTCP) are susceptible to natural HBV infection. To further characterize the inhibitory effects of the synthetic gRNA/Cas9 RNPs on HBV replication, HepG2-NTCP cells were incubated with supernatants collected from gRNA/Cas9 RNP-transfected HepDE19 cell culture (after 4 days). Genomic DNA was isolated from HepG2-NTCP cells on day 8 after HBV infection and used for the assessment of HBV replication.

## GGTCTCCATGCGACGTGCAGNGG [gRNA9]
  HBV DNA in HepG2-NTCP cells: significantly lower
  HBV cccDNA in HepG2-NTCP cells: remarkably lower
Listed as gRNA9/Cas9
  HBV DNA in HepG2-NTCP cells: significantly fewer copies
  HBV cccDNA in HepG2-NTCP cells: significantly fewer copies

## GTTATCGCTGGATGTGTCTGNGG (guide GUUAUCGCUGGAUGUGUCUGNGG; complexed with Cas9 protein, chemistry not fully specified) [gRNA5, tested as synthetic gRNA/Cas9 RNP]
  HBV DNA in HepG2-NTCP cells: significantly lower
  HBV cccDNA in HepG2-NTCP cells: remarkably lower
Listed as gRNA5/Cas9
  HBV DNA in HepG2-NTCP cells: significantly fewer copies
  HBV cccDNA in HepG2-NTCP cells: significantly fewer copies
